Test results: EP0405273A2, “Method for producing readily soluble crystalline alfa-L-aspartyl-L-phenylalanine methyl ester” (MITSUI TOATSU CHEMICALS, Inc., priority 1989, dated 1991)
Peptide text beside a SMILES is read from it.

Legend:
[1] = Solubilization test (time for complete dissolution in water); format: physicochemical; conditions: 250 mg ground sample in 250 ml pure water at 26 ± 2°C, stirred at 350 to 360 rpm, stirring and standing repeated every 30 seconds
Procedure: The present invention will be described in detail in the following examples, in which the solubilization test was carried out by the following procedure: Solubilization Test
Into 250 ml of pure water having a temperature of 26 ± 2°C which was being stirred (at 350 to 360 rpm by a magnetic stirrer) was poured 250 mg of a ground α-APM sample. Stirring and standing were repeated every 30 seconds. The time required for the sample to dissolve completely was measured.

[2] = Solubilization of conventionally recrystallized α-APM in water at room temperature; format: physicochemical; conditions: 250 mg crushed powder in 250 ml of water at room temperature, stirring and standing alternated every 30 seconds
From the text: α-APM purified y conventional recrystallization methods has the disadvantage of poor solubilization (rate of solution) in water.

[3] = widely known property stated in the prior art section; cited from earlier work

Structure (SMILES) | time required for the sample to dissolve completely [1] | further results
COC(=O)[C@H](Cc1ccccc1)NC(=O)[C@@H](N)CC(=O)O [Comparative Example, α-L-aspartyl-L-phenylalanien emthyl ester, reference compound] (H-Asp-Phe-OMe) | 25 min | 
COC(=O)[C@H](Cc1ccccc1)NC(=O)[C@@H](N)CC(=O)O [Example 1, α-L-aspartyl-L-phenylalanien emthyl ester] (H-Asp-Phe-OMe) | ≤ 5 min | 
COC(=O)[C@H](Cc1ccccc1)NC(=O)[C@@H](N)CC(=O)O [Example 2, α-L-aspartyl-L-phenylalanien emthyl ester] (H-Asp-Phe-OMe) | ≤ 5 min | 
COC(=O)[C@H](Cc1ccccc1)NC(=O)[C@@H](N)CC(=O)O [Example 3, α-L-aspartyl-L-phenylalanien emthyl ester] (H-Asp-Phe-OMe) | ≤ 5 min | 
COC(=O)[C@H](Cc1ccccc1)NC(=O)[C@@H](N)CC(=O)O [Example 4, α-L-aspartyl-L-phenylalanien emthyl ester] (H-Asp-Phe-OMe) | ≤ 5 min | 
COC(=O)[C@H](Cc1ccccc1)NC(=O)[C@@H](N)CC(=O)O [Example 5, α-L-aspartyl-L-phenylalanien emthyl ester] (H-Asp-Phe-OMe) | ≤ 5 min | 
COC(=O)[C@H](Cc1ccccc1)NC(=O)[C@@H](N)CC(=O)O [α-APM obtained conventionally by recrystallization from a 50] [α-L-aspartyl-L-phenylalanien emthyl ester] (H-Asp-Phe-OMe) |  | time required to dissolve completely [2]: more than 15 minutes
COC(=O)[C@H](Cc1ccccc1)NC(=O)[C@@H](N)CC(=O)O [α-APM, α-L-aspartyl-L-phenylalanien emthyl ester] (H-Asp-Phe-OMe) |  | degree of sweetness [3]: about 200 times the sweetness of sucrose
